Like-named read-outs stand apart in the source and are kept apart here.
Legend:
androgen receptor (AR) = biological target: T1, androgen receptor (AR) (Homo sapiens, UniProt P10275, T878A); test: eGFP cellular AR transcription assay; assay type: cell-based; settings: LN-ARR2PB-eGFP LNCaP cells, 0.1 nM R1881, 3 days, 0-100 μM compound; for IC50: read-out: IC50 (eGFP)
T1 construct: stably transfected eGFP-expressing LNCaP human prostate cancer cells (LN-ARR2PB-eGFP) containing an androgen responsive probasin-derived promoter; endogenous in cells; host or cells: LNCaP (LN-ARR2PB-eGFP)
T1 sequence (P10275 1-920 T878A): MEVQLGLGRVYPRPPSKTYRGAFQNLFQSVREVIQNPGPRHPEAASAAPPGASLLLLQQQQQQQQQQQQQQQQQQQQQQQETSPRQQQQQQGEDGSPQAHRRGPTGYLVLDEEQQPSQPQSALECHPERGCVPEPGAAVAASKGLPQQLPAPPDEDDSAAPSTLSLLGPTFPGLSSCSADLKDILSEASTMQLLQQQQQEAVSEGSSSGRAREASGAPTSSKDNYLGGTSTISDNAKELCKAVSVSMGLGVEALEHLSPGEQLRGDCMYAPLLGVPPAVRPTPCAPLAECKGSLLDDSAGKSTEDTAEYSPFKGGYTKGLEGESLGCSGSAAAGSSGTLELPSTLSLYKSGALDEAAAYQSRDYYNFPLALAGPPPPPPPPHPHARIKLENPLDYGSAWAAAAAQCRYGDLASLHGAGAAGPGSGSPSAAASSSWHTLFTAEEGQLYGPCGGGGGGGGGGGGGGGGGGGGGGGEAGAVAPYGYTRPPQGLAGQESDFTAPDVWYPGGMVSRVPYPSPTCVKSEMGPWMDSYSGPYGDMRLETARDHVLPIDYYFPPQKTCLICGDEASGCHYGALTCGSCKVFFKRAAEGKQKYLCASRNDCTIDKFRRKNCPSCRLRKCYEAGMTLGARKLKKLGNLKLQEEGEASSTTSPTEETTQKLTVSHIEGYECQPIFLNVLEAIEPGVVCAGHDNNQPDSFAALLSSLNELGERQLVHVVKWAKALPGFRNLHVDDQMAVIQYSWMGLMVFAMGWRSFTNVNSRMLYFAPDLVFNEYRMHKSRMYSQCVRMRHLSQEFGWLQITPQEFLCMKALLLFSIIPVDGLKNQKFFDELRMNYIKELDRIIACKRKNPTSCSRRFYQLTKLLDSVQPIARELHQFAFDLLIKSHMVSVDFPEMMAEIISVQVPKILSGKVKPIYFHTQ
Method: After 5 days, the cells were plated into a 96-well plate (35,000 cells/well) with 0.1 nM of the synthetic androgen R1881 and increasing concentrations (0-100 μM) of compound.
After 5 days, the cells were plated into a 96-well plate (35,000 cells/well) with 0.1 nM R1881 and increasing concentrations (0-100 μM) of compound.
In this assay, the expression of eGFP is under the control of an androgen responsive probasin-derived promoter and can quantify AR transcriptional activity.

PSA = test: Prostate Surface Antigen (PSA) assay, PSA excreted into the media; assay type: cell-based, human; settings: same plates as eGFP assay
Method: The evaluation of PSA excreted into the media was performed in parallel to the eGFP assay using the same plates (see above description). After the cells were incubated for 3 days 150 μl of the media was taken from each well, and added to 150 μl of PBS.

[1] = Homo sapiens, 72 h, media after 3 days, read-out: IC50 (PSA)
[2] = Homo sapiens, 72 h, PSA excreted into media, 3 days incubation, read-out: PSA IC50
[3] = PSA excreted into media, 3 days incubation, read-out: PSA IC50

| Structure (SMILES) | IC50 (androgen receptor (AR)) | IC50 (PSA; [1]) | also measured |
| --- | --- | --- | --- |
| c1ccc2c(c1)NC(c1c[nH]c3ccccc13)C21CCCCC1 (centres unmarked) [13 534] | 800 nM | 1250 nM | – |
| Cc1ccc2[nH]cc(C3Nc4ccccc4C3(C)C)c2c1 (centres unmarked) [13 535] | 1500 nM | 1870 nM | – |
| COc1ccc2[nH]cc(C3Nc4ccccc4C3(C)C)c2c1 (centres unmarked) [13 536] | 2200 nM | 2520 nM | – |
| CC1(C)C(c2c[nH]c3ncccc23)=Nc2ccccc21 [13 537] | 700 nM | 810 nM | – |
| CC1(C)C(c2c[nH]c3c(O)cccc23)=Nc2ccccc21 [13 541] | 500 nM | 940 nM | – |
| CC1(C)c2ccc(Br)cc2NC1c1c[nH]c2c(OCc3ccccc3)cccc12 (centres unmarked) [13 543] | 3700 nM | 3190 nM | – |
| Cc1ccc2[nH]cc(C3Nc4ccccc4C34CCCCC4)c2c1 (centres unmarked) [13 548] | 3200 nM | 4240 nM | – |
| Cc1cccc2c(C3Nc4ccccc4C34CCCCC4)c[nH]c12 (centres unmarked) [13 549] | 1700 nM | 2570 nM | – |
| Oc1cccc2c(C3Nc4ccccc4C34CCCCC4)c[nH]c12 (centres unmarked) [13 552] | 1100 nM | 1140 nM | – |
| COc1cccc2c(-c3cc(C)c4ccccc4n3)c[nH]c12 [13 554] | 600 nM | 670 nM | – |
| CC1(C)c2ccccc2NC1c1c[nH]c2ncccc12 (centres unmarked) [13 556] | 2100 nM | 2180 nM | – |
| c1ccc2nc(-c3c[nH]c4ccccc34)ccc2c1 [13 562] | 60 nM | 140 nM | – |
| CCc1cccc2c(-c3ccc4ccccc4n3)c[nH]c12 [13 567] | 200 nM | 230 nM | – |
| Brc1ccc2c(-c3ccc4ccccc4n3)c[nH]c2c1 [13 568] | 1300 nM | 1560 nM | – |
| Cc1cccc2cnn(-c3ccc4ccccc4n3)c12 [13 575] | 3500 nM | 1360 nM | – |
| Fc1ccc2c(-c3ccc4ccccc4n3)c[nH]c2c1 [13 576] | 144 nM | 48 nM | – |
| Cc1ccc2[nH]cc(-c3ccc4ccccc4n3)c2c1 [13 577] | 3200 nM | 1730 nM | – |
| Brc1cccc2c(-c3ccc4ccccc4n3)c[nH]c12 [13 582] | 52 nM | 41 nM | – |
| c1ccc2nc(-c3c[nH]c4cnccc34)ccc2c1 [13 583] | 1100 nM | 930 nM | – |
| c1ccc2ncc(-c3c[nH]c4ccncc34)cc2c1 [13 637] | – | – | IC50 (eGFP) (androgen receptor (AR)): IC50 (eGFP) = Inactive; IC50 (PSA) (PSA; media after 3 days): IC50 (PSA) = Inactive |
| COc1ccc(Br)cc1-c1c[nH]c2ccccc12 [13 638] | – | – | IC50 (eGFP) (androgen receptor (AR)): IC50 (eGFP) = Inactive; IC50 (PSA) (PSA; media after 3 days): IC50 (PSA) = Inactive |
| Brc1cccc2c(-c3cnc4ccccc4c3)c[nH]c12 [13 653] | 1130 nM | 290 nM | – |
| Cc1cccc2c(-c3cnc4ccccc4c3)c[nH]c12 [13 654] | 920 nM | 160 nM | – |
| Cc1cccc2c(-c3cccnc3)c[nH]c12 [13 655] | 1660 nM | 610 nM | – |
| c1ccc2cc(-c3c[nH]c4cnccc34)ccc2c1 [13 675] | 450 nM | – | IC50 (PSA; media after 3 days, read-out: IC50 (PSA)): 468 nM |
| c1ccc2cc(-c3c[nH]c4ncccc34)ccc2c1 [13 676] | 53 nM | 34 nM | – |

| Structure (SMILES) | IC50 (androgen receptor (AR)) | IC50 (PSA; [1]) | also measured |
| --- | --- | --- | --- |
| Cc1cccc2c(-c3ccc4c(Br)cccc4n3)c[nH]c12 [13 678] | – | – | IC50 (eGFP) (androgen receptor (AR)): IC50 (eGFP) = Inactive; IC50 (PSA) (PSA; media after 3 days): IC50 (PSA) = Inactive |
| Cc1cccc2c(-c3ccc4c(Br)ccc(Br)c4n3)c[nH]c12 [13 679] | – | – | IC50 (eGFP) (androgen receptor (AR)): IC50 (eGFP) = Inactive; IC50 (PSA) (PSA; media after 3 days): IC50 (PSA) = Inactive |
| Brc1ccc2[nH]cc(-c3ccc4ccccc4n3)c2c1 [13 683] | 2600 nM | 1910 nM | – |
| c1ccc2ncc(-c3n[nH]c4ccccc34)cc2c1 [13 684] | 1400 nM | 6610 nM | – |
| c1ccc2cc(-c3c[nH]c4ccncc34)ccc2c1 [13 685] | – | – | IC50 (eGFP) (androgen receptor (AR)): IC50 (eGFP) = Inactive; IC50 (PSA) (PSA; media after 3 days): IC50 (PSA) = Inactive |
| Oc1cc2ccccc2cc1-c1nc2ccccc2[nH]1 [13 687] | – | – | IC50 (eGFP) (androgen receptor (AR)): IC50 (eGFP) = Inactive; IC50 (PSA) (PSA; media after 3 days): IC50 (PSA) = Inactive |
| c1ccc2c(Cc3nn[nH]n3)c[nH]c2c1 [13 700] | – | – | IC50 (eGFP) (androgen receptor (AR)): IC50 (eGFP) = Inactive; IC50 (PSA) (PSA; media after 3 days): IC50 (PSA) = Inactive |
| c1ccc2c(-c3nn[nH]n3)c[nH]c2c1 [13 701] | – | – | IC50 (eGFP) (androgen receptor (AR)): IC50 (eGFP) = Inactive; IC50 (PSA) (PSA; media after 3 days): IC50 (PSA) = Inactive |
| O=[N+]([O-])c1cccc2c(-c3ccc4ccccc4c3)c[nH]c12 [13 702] | 200 nM | 140 nM | – |
| c1ccc2cc(-c3c[nH]c4cccnc34)ccc2c1 [13 703] | 100 nM | 97 nM | – |
| c1ccc(-c2ccc(-c3c[nH]c4ncccc34)cc2)cc1 [13 715] | 4080 nM | 350 nM | – |
| Brc1ccc(-c2c[nH]c3ncccc23)cc1 [13 716] | 67 nM | 58 nM | – |
| Cc1cccc2c(-c3ccc(-c4ccccc4)cc3)c[nH]c12 [13 733] | 3810 nM | 919 nM | – |
| c1ccc(-c2cccc(-c3c[nH]c4ncccc34)c2)cc1 [13 734] | 11000 nM | 4130 nM | – |
| c1ccc(-c2ccc(-c3c[nH]c4cccnc34)cc2)cc1 [13 735] | 3860 nM | 1430 nM | – |
| COC(=O)c1cccc2c(-c3ccc(Br)cc3)c[nH]c12 [13 736] | 620 nM | 680 nM | – |
| Brc1ccc(-c2c[nH]c3cccnc23)cc1 [13 737] | 80 nM | 37 nM | – |
| Fc1cc(Cl)cc2c(-c3ccc4ccccc4n3)c[nH]c12 [Compound 13641] | – | – | IC50 (PSA; [2]): 403 nM |
| Fc1ccc2c(-c3ccc4ccccc4n3)c[nH]c2c1Cl [Compound 13642] | – | – | IC50 (PSA; [2]): 25 nM |
| Cc1cccc2c(-c3cnc4ccccc4c3)c[nH]c12 [Compound 13643] | – | – | IC50 (PSA; [2]): 156 nM |
| Cc1cccc2c(-c3cnc4ccccc4c3)c[nH]c12 [Compound 13654] | – | – | IC50 (PSA; [3]): 160 nM |
| Cc1cccc2c(-c3ccc4cccc(Br)c4n3)c[nH]c12 [Compound 13677] | – | – | IC50 (PSA; [2]): 110 nM |
| c1ccc(-c2nc3ccccc3[nH]2)cc1 [Compound 13686] | – | – | PSA IC50 (PSA; PSA excreted into media, 3 days incubation): Inactive |
| Cc1cccc2c(-c3ccc4cccc(F)c4n3)c[nH]c12 [Compound 13692] | – | – | IC50 (PSA; [2]): 82 nM |
| CNC(=O)c1cccc2nc(-c3c[nH]c4c(F)c(F)c(F)cc34)ccc12 [Compound 13754] | – | – | IC50 (PSA; [3]): 51 nM |
| Fc1cc2c(-c3ccc4c(C(F)(F)F)cccc4n3)c[nH]c2c(F)c1F [Compound 13761] | – | – | IC50 (PSA; [2]): 383 nM |
